{"source": "patent US6727287B2", "about": "“Toluene sulfonamide-containing anti-tumor composition and method of use thereof” (PTS International, Inc., priority 2001, dated 2004)", "tested_on": "normal (i.e., non-neoplastic) cells", "test": "Exposure of normal (non-neoplastic) cells to para-toluene sulfonamide", "conditions": "normal (non-neoplastic) cells exposed to the compound", "data": [{"smiles": "Cc1ccc(S(N)(=O)=O)cc1", "note": "[para-toluene sulfonamide]", "values": [{"measurement": "histopathological changes in normal cells", "result": "almost no histopathological changes"}]}]}
